For one assay, the target named is T1, Ras farnesyl transferase (Homo sapiens, UniProt P49354+P49356).
T1 construct: made in house
Kind of assay: Ras farnesyl transferase inhibiting activity (filter-binding, tritium-farnesylpyrophosphate, Ras-CVLS substrate). In kind it is biochemical. Particulars: recombinant Ras farnesyl transferase, 30 minutes at 37° C., read-out: Ftase IC50. How it is done:
The enzyme reaction was performed in 50 μl of 50 mM Sodium HEPES buffer solution containing 25 mmol of potassium chloride. 25 mmol of magnesium chloride, 10 mmol of DTT and 50 μmol of zinc chloride. 1.5 μmol of Ras substrate protein, 0.15 μmol of tritium-farnesylpyrophosphate and 4.5 nmol of farnesyl transferase were used.
More specifically, in the initial step, farnesyl transferase was added to the above buffer solution, reaction was maintained for 30 minutes at 37° C. and then the reaction was stopped by adding 1 ml of ethanol solution containing 1M HCl. The formed precipitates were adsorbed to GF/B filter using Hopper harvestor(Hopper #225V) for filter-binding, washed with ethanol, and then radioactivity of the dried filter was measured using LKB β counter. Enzyme titer was measured in the unsaturated state of substrate where the concentrations of Ras substrate protein and farnesyl transferase have quantitative relationship. Enzyme inhibiting activity was measured using less than 5% of total reaction solution of the compound according to the present invention dissolved in dimethylsulfoxide(DMSO) solution as a reagent. Enzyme inhibiting activity was represented by percentage of the amount of the farnesyl incorporated with the reagent to that without the reagent.

Assay [1] relates to intracellular Ras farnesyl transferase, Rat2 cell line. Description: Intracellular Ras farnesyl transferase inhibiting activity in transformed Rat2 cells (35S-methionine labelling, Y13-259 immunoprecipitation, SDS-PAGE). It counts as cell-based. Particulars: Rattus norvegicus; transformed Rat2 fibroblast cell line; concentration inhibiting 50% of farnesyl binding of Ras protein; read-out: Ftase CIC50. How it is done: In the present experiment, Rat2 cell line which expresses C-Harvey-Ras protein having transforming activity and Rat2 cell line(Korean patent application No. 97-14409) which is transformed with fused protein of H-Ras substituted with polybasic lysine domain at C-terminus of K-Ras were used. The experiment was performed by the modified Declue's method(Declue. J. E. et al., Cancer Research, 1991. 51, 712). Hereinafter, the experimental method will be described in more detail.
3×10^5 cells of transformed Rat2 fibroblast cell line were sprayed on 60 mm cell cultivation dish and cultivated for 48 hours in a cell incubator at 37° C. and after 50% or more of density was reached, it was treated with a reagent. The compound according to the present invention dissolved in dimethylsulfoxide(DMSO) was used as the reagent. 1% of dimethylsulfoxide was used in both control and experimental groups. After 4 hours from the treatment of the reagent, methionine labeled with 150 μCi of radioactive isotope, ^35S per 1 ml of medium, was added and after cultivating for 20 hours, the cells were washed with physiological saline water. The cells were lysed using 1 ml of cool cell lysis buffer solution(50 mM of Sodium Herpiss buffer solution containing 5 mmol of magnesium chloride. 1 mmol of DTT, 1% NP 40, 1 mmol of EDTA, 1 mmol of PMSF, 2 μmol of leupeptin, 2 μmol of pepstatin A and 2 μmol of antipain) and the supernatant was obtained by high-velocity centrifugation of 12,000 g×5 minutes. The amount of the labeled radioisotope of the supernatent was measured and standardized to obtain a quantitative result in immunoprecipitation reaction and then. Y13-259, monoclonal antiboby specifically binding to Ras protein(Furth, M. E. et al., J. Virol, 1982, 43, 294) was added and reacted for 15 hours at 4° C. Protein A bound to goat anti-murine Immunoglobulin antibody-agarose suspension was added to the solution and reacted for 1 hour at 4° C. and then, to remove unspecific binding product, immunoprecipitates were washed with buffer solution(50 mM Tris chloride buffer solution containing 50 mmol of sodium chloride, 0.5% of sodium dioxycolate, 0.5% of NP 40 and 0.1% of SDS). The precipitates were boiled in reagent buffer solution for electrophoresis and then, electrophoresis was performed using 13.5% of SDS polyacrylamide gel. After electrophoresis, the gel was fixed and dried. Then, the gel was exposed to X-ray film, developed and printed. From the result of the experiment, intensities of band of protein with and without farnesyl of Ras protein were measured, and the concentration of reagent inhibiting 50% of farnesyl binding was defined as CIC50, an intracellular Ras farnesyl transferase inhibiting activity.

The target in assay [2] is T2, Geranylgeranyl transferase (Bos taurus, UniProt P29702+Q5EAD5).
T2 construct: Geranylgeranyl transferase was purified from bovine brain; from tissue; host or cells: bovine brain
Description: Geranylgeranyl transferase inhibiting activity (geranylgeranyl pyrophosphate, Ras-CVIL substrate). It counts as biochemical. Particulars: geranylgeranyl transferase purified from bovine brain, read-out: GGtase IC50. How it is done: To evaluate the selective enzyme inhibiting activity of the compound according to the present invention, inhibiting activity on geranylgeranyl transferase was measured. Geranylgeranyl transferase was purified from bovine brain with the method modified from Schber's method(Schber et al., J. Biol. Chem. 1990, 265, 14701). and substantially the same experiment as that of farnesyl transferase was performed using geranylgeranyl pyrophosphate and Ras-CVIL substrate protein under the similar condition to farnesyl transferase reaction.

Consider 18 compounds from patent US6384061B1, “Hydantoin compounds and methods related thereto” (LG Chemical Ltd., priority 2000, dated 2002).

For `CC1(c2cccc3ccccc23)C(=O)N(CCCc2cnc[nH]2)C(=O)N1CC(=O)N1CCSC1` (stereo not drawn) [Compound 10, 3-[3-(3H-imidazol-4-yl)-propyl]-5-methyl-5-naphthalen-1-yl-1-(2-oxo-2-thiazolidin-3-yl-ethyl)-imidazolidin-2,4-dione], the values for the IC50 (at Ras farnesyl transferase; in assay [1]; in assay [2]) were above 50 µM, below 20 µM and above 10 µM, respectively.
On to `CC1(c2cccc3ccccc23)C(=O)N(CCCc2cnc[nH]2)C(=O)N1CC(=O)N1CCS(=O)(=O)C1` (stereo not drawn) [Compound 11], for which the IC50 on Ras farnesyl transferase was above 50 µM; in assay [1], below 20 µM; in assay [2] it was above 10 µM.
On the same counts, the results for `CSCCC1SCCN1C(=O)CN1C(=O)N(CCCc2cnc[nH]2)C(=O)C1(C)c1cccc2ccccc12` (stereo not drawn) [Compound 12, 3-[3-(3H-imidazol-4-yl)-propyl]-5-methyl-1-{2-[2-(2-methylsulfanyl-ethyl)-thiazolidin-3-yl]-2-oxo-ethyl}-5-naphthalen-1-yl-imidazolidin-2,4-dione] are 5.5 µM, below 20 µM and above 10 µM.
As to `CC1(c2cccc3ccccc23)C(=O)N(CCCc2cnc[nH]2)C(=O)N1CC(=O)NC(CCS(C)(=O)=O)C(=O)O` (stereo not drawn) [Compound 13, 2-(2-{3-[3-(3H-imidazol-4-yl)-propyl]-5-methyl-5-naphthalen-1-yl-2,4-dioxo-imidazolidin-1-yl}-acetylamino)-4-methylsulfonyl-butyric acid], the values for the IC50 (at Ras farnesyl transferase; in assay [1]; in assay [2]) were 0.0015 µM, below 20 µM and above 10 µM, respectively.
For the compound `CSCCC(NC(=O)CN1C(=O)N(CCCn2ccnc2)C(=O)C1(C)c1cccc2ccccc12)C(=O)O` (stereo not drawn) [Compound 14, 2-{2-[3-(3-imidazol-1-yl-propyl)-5-methyl-5-naphthalen-1-yl-2,4-dioxo-imidazolidin-1-yl]-acetylamino}-4-methylsulfanyl-butyric acid], the IC50 on Ras farnesyl transferase is 0.001 µM; in assay [1], below 20 µM; in assay [2], above 10 µM.
On the same counts, the results for `CSCCC(NC(=O)CN1C(=O)N(CCn2ccnc2)C(=O)C1(C)c1cccc2ccccc12)C(=O)O` (stereo not drawn) [Compound 15, 2-{2-[3-(2-imidazol-1-yl-ethyl)-5-methyl-5-naphthalen-1-yl-2,4-dioxo-imidazolidin-1-yl]-acetylamino}-4-methylsulfanyl-butyric acid] are 0.002 µM, below 20 µM and above 10 µM.
On the same counts, the results for `CC1(c2cccc3ccccc23)C(=O)N(CCCn2ccnc2)C(=O)N1Cc1ccccc1` (stereo not drawn) [Compound 16, 1-benzyl-3-(3-imidazol-1-yl-propyl)-5-methyl-5-naphthalen-1-yl-imidazolidin-2,4-dione] are 2.5 µM, below 20 µM and above 10 µM.
On the same counts, the results for `CC1(c2cccc3ccccc23)C(=O)N(CCCn2ccnc2)C(=O)N1Cc1c(F)c(F)c(F)c(F)c1F` (stereo not drawn) [Compound 17, 1-(pentafluoro-benzyl)-3-(3-imidazol-1-yl-propyl)-5-methyl-5-naphthalen-1-yl-imidazolidin-2,4-dione] are 1.5 µM, below 20 µM and above 10 µM.
As to `CC1(c2cccc3ccccc23)C(=O)N(CCCn2ccnc2)C(=O)N1Cc1cccnc1` (stereo not drawn) [Compound 18, 1-(3-pyridylmethyl)-3-(3-imidazol-1-yl-propyl)-5-methyl-5-naphthalen-1-yl-imidazolidin-2,4-dione], the IC50 on Ras farnesyl transferase is 0.6 µM; in assay [1], below 20 µM; in assay [2], above 10 µM.
Taken in the same sequence, the figures for `CC1(c2cccc3ccccc23)C(=O)N(CCCn2ccnc2)C(=O)N1Cc1cccc(Cl)c1` (stereo not drawn) [Compound 19, 1-(3-chloro-benzyl)-3-(3-imidazol-1-yl-propyl)-5-methyl-5-naphthalen-1-yl-imidazolidin-2,4-dione] were 0.24 µM, below 20 µM and above 10 µM.
Taken in the same sequence, the figures for `CC1(c2cccc3ccccc23)C(=O)N(CCCn2ccnc2)C(=O)N1Cc1cccc(Br)c1` (stereo not drawn) [Compound 20, 1-(3-bromo-benzyl)-3-(3-imidazol-1-yl-propyl)-5-methyl-5-naphthalen-1-yl-imidazolidin-2,4-dione] were 0.3 µM, below 20 µM and above 10 µM.
On to `CC1(c2cccc3ccccc23)C(=O)N(CCCn2ccnc2)C(=O)N1Cc1ccc(Br)cc1` (stereo not drawn) [Compound 21, 1-(4-bromo-benzyl)-3-(3-imidazol-1-yl-propyl)-5-methyl-5-naphthalen-1-yl-imidazolidin-2,4-dione], for which the IC50 was 0.15 µM on Ras farnesyl transferase, below 20 µM in assay [1] and above 10 µM in assay [2].
`CC1(c2cccc3ccccc23)C(=O)N(CCCn2ccnc2)C(=O)N1Cc1cccc(C(F)(F)F)c1` (stereo not drawn) [Compound 22, 1-(3-trifluoromethyl-benzyl)-3-(3-imidazol-1-yl-propyl)-5-methyl-5-naphthalen-1-yl-imidazolidin-2,4-dione]: the results for the IC50 (at Ras farnesyl transferase; in assay [1]; in assay [2]) were 1.7 µM, below 20 µM and above 10 µM, respectively.
On to `CC1(c2cccc3ccccc23)C(=O)N(CCCn2ccnc2)C(=O)N1Cc1cccc(OC(F)(F)F)c1` (stereo not drawn) [Compound 23, 1-(3-trifluoromethoxy-benzyl)-3-(3-imidazol-1-yl-propyl)-5-methyl-5-naphthalen-1-yl-imidazolidin-2,4-dione], for which the IC50 on Ras farnesyl transferase is 3 µM; in assay [1] it was below 20 µM; in assay [2], above 10 µM.
Taken in the same sequence, the figures for `CC1(c2cccc3ccccc23)C(=O)N(CCCn2ccnc2)C(=O)N1Cc1ccc(Oc2ccccc2)cc1` (stereo not drawn) [Compound 24, 3-(3-imidazol-1-yl-propyl)-5-methyl-5-naphthalen-1-yl-1-(4-phenoxy-benzyl)-imidazolidin-2,4-dione] were 0.75 µM, below 20 µM and above 10 µM.
Taken in the same sequence, the figures for `CC1(c2cccc3ccccc23)C(=O)N(CCCn2ccnc2)C(=O)N1Cc1cccc(Oc2ccccc2)c1` (stereo not drawn) [Compound 25, 3-(3-imidazol-1-yl-propyl)-5-methyl-5-naphthalen-1-yl-1-(3-phenoxy-benzyl)-imidazolidin-2,4-dione] were 0.72 µM, below 20 µM and above 10 µM.
Taken in the same sequence, the figures for `CSc1ccc(CN2C(=O)N(CCCn3ccnc3)C(=O)C2(C)c2cccc3ccccc23)cc1` (stereo not drawn) [Compound 26, 3-(3-imidazol-1-yl-propyl)-1-(4-methylsulfanyl-benzyl)-5-methyl-5-naphthalen-1-yl-imidazolidin-2,4-dione] were 0.7 µM, below 20 µM and above 10 µM.
For the compound `CSCc1ccc(CN2C(=O)N(CCCn3ccnc3)C(=O)C2(C)c2cccc3ccccc23)cc1` (stereo not drawn) [Compound 27, 3-(3-imidazol-1-yl-propyl)-1-(4-methylsulfanylmethyl-benzyl)-5-methyl-5-naphthalen-1-yl-imidazolidin-2,4-dione], the results for the IC50 (on Ras farnesyl transferase; in assay [1]; in assay [2]) were 0.21 µM, below 20 µM and above 10 µM, respectively.
